Experiments:
[1] = Terminal half life in Beagle dog at 1 mg/kg, iv measured up to 8 hrs by LC-MS/MS analysis; format: ADME, organism-based, Canis lupus familiaris; settings: in vivo, read-out: beta t1/2 (converted)
[2] = Volume of distribution at steady state in Beagle dog at 1 mg/kg, iv measured up to 8 hrs by LC-MS/MS analysis; format: ADME, organism-based, Canis lupus familiaris; settings: in vivo, read-out: Vdss
[3] = Clearance in Beagle dog at 1 mg/kg, iv measured up to 8 hrs by LC-MS/MS analysis; format: ADME, organism-based, Canis lupus familiaris; settings: in vivo
[4] = AUC (0 to last) in cynomolgus monkey at 1 mg/kg, iv measured up to 8 hrs by LC-MS/MS analysis; format: ADME, organism-based, Macaca fascicularis; settings: in vivo
[5] = AUCinfinity in CD-1 mouse at 1 mg/kg, iv measured up to 24 hrs by LC-MS/MS analysis; format: ADME, organism-based; settings: in vivo
[6] = Terminal half life in Sprague-Dawley rat at 1 mg/kg, iv measured up to 8 hrs by LC-MS/MS analysis; format: ADME, organism-based; settings: in vivo, read-out: beta t1/2 (converted)
[7] = target: T1, Tyrosine-protein kinase receptor UFO (Homo sapiens, UniProt P30530); test: Inhibition of human AXL measured after 150 mins by ATP-competitive HTRF based biochemical assay
T1 sequence (P30530 whole entry): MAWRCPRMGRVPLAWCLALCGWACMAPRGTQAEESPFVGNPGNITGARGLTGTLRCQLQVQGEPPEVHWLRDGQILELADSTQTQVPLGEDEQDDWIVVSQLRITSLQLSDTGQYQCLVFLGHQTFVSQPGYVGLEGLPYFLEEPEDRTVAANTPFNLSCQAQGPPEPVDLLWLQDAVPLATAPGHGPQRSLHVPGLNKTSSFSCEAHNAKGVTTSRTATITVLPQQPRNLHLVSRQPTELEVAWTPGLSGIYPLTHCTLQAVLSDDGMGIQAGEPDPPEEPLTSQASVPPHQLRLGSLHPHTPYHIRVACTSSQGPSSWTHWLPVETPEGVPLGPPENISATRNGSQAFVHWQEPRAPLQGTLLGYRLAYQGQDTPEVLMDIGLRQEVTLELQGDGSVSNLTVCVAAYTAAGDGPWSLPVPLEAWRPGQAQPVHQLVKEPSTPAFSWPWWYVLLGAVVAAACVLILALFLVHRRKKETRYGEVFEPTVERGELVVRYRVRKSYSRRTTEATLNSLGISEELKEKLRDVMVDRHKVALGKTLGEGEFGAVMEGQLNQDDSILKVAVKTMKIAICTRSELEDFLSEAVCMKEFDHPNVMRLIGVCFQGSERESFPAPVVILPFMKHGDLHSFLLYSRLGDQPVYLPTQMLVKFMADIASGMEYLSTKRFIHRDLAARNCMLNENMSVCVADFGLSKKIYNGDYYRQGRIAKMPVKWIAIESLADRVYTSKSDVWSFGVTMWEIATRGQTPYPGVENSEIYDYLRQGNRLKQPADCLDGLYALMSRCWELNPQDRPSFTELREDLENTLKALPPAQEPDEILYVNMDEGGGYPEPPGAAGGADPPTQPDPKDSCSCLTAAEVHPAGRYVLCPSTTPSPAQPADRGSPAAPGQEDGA

[8] = Volume of distribution at steady state in CD-1 mouse at 1 mg/kg, iv measured up to 24 hrs by LC-MS/MS analysis; format: ADME, organism-based; settings: in vivo, read-out: Vdss
[9] = AUC (0 to last) in Sprague-Dawley rat at 1 mg/kg, iv measured up to 8 hrs by LC-MS/MS analysis; format: ADME, organism-based; settings: in vivo
[10] = AUC (0 to last) in CD-1 mouse at 1 mg/kg, iv measured up to 24 hrs by LC-MS/MS analysis; format: ADME, organism-based; settings: in vivo
[11] = Terminal half life in CD-1 mouse at 1 mg/kg, iv measured up to 24 hrs by LC-MS/MS analysis; format: ADME, organism-based; settings: in vivo, read-out: beta t1/2 (converted)
[12] = AUCinfinity in Sprague-Dawley rat at 1 mg/kg, iv measured up to 8 hrs by LC-MS/MS analysis; format: ADME, organism-based; settings: in vivo
[13] = Metabolic stability in human hepatocytes assessed as intrinsic clearance measured per 10^6 cells; format: ADME, cell-based, Hepatocyte; settings: read-out: CLH
[14] = Efflux ratio in human Caco-2 cells; format: ADME, cell-based
[15] = AUCinfinity in Beagle dog at 1 mg/kg, iv measured up to 8 hrs by LC-MS/MS analysis; format: ADME, organism-based, Canis lupus familiaris; settings: in vivo
[16] = AUCinfinity in cynomolgus monkey at 1 mg/kg, iv measured up to 8 hrs by LC-MS/MS analysis; format: ADME, organism-based, Macaca fascicularis; settings: in vivo
[17] = Volume of distribution at steady state in cynomolgus monkey at 1 mg/kg, iv measured up to 8 hrs by LC-MS/MS analysis; format: ADME, organism-based, Macaca fascicularis; settings: in vivo, read-out: Vdss
[18] = Volume of distribution at steady state in Sprague-Dawley rat at 1 mg/kg, iv measured up to 8 hrs by LC-MS/MS analysis; format: ADME, organism-based; settings: in vivo, read-out: Vdss
[19] = Metabolic stability in rat hepatocytes assessed as intrinsic clearance measured per 10^6 cells; format: ADME, cell-based, Hepatocyte; settings: read-out: CLH
[20] = Clearance in CD-1 mouse at 1 mg/kg, iv measured up to 24 hrs by LC-MS/MS analysis; format: ADME, organism-based; settings: in vivo
[21] = target: T1, Tyrosine-protein kinase receptor UFO; test: Binding affinity to AXL (unknown origin) expressed in HEK293 cells transfected with Nano-Luc fusion vector assessed as dissociation constant by measuring decrease in BRET signal preincubated for 1 hr followed by K-5 NanoBRET tracer addition incubated for 2 hrs; format: cell-based
[22] = Terminal half life in cynomolgus monkey at 1 mg/kg, iv measured up to 8 hrs by LC-MS/MS analysis; format: ADME, organism-based, Macaca fascicularis; settings: in vivo, read-out: beta t1/2 (converted)
[23] = Clearance in Sprague-Dawley rat at 1 mg/kg, iv measured up to 8 hrs by LC-MS/MS analysis; format: ADME, organism-based; settings: in vivo
[24] = AUC (0 to last) in Beagle dog at 1 mg/kg, iv measured up to 8 hrs by LC-MS/MS analysis; format: ADME, organism-based, Canis lupus familiaris; settings: in vivo
[25] = Clearance in cynomolgus monkey at 1 mg/kg, iv measured up to 8 hrs by LC-MS/MS analysis; format: ADME, organism-based, Macaca fascicularis; settings: in vivo
[26] = AUCinf in Sprague-Dawley rat at 2 mg/kg, po measured up to 8 hrs by LC-MS/MS analysis; format: ADME, organism-based; settings: in vivo

With `CN(C)C(=O)c1ccc(-c2n[nH]c3ncc(-c4ccc5c(c4)CC[C@@H](N4C6COCC4C6)CC5)cc23)cc1` the half-life [1] was 3.8 h, the Vd [2] was 8.1 L/kg and the clearance [3] was 33.3 mL/min/kg. For the same molecule, the AUC(0-t) at 8 h [4] was 210 ng·h/mL, the AUC(0-inf) [5] was 430 ng·h/mL and the half-life [6] was 2.2 h. It also gave an IC50 [7] of 5.3 nM, a Vd [8] of 3.2 L/kg and an AUC(0-t) at 8 h [9] of 6100 ng·h/mL. The AUC(0-t) at 24 h [10] was 13 ng·h/mL, the half-life [11] was 8.1 h and the AUC(0-inf) [12] was 6400 ng·h/mL. It also gave a hepatocyte CLint [13] of 4.6 µL/min/1e6 cells, an efflux ratio [14] of 11 and an AUC(0-inf) [15] of 560 ng·h/mL. For the same molecule, the AUC(0-inf) [16] was 230 ng·h/mL, the Vd [17] was 13 L/kg and the Vd [18] was 0.34 L/kg. It also gave a hepatocyte CLint [19] of 20 µL/min/1e6 cells, a clearance [20] of 38.3 mL/min/kg and a Kd [21] of 6.8 nM. The half-life [22] was 2.3 h, the clearance [23] was 2.67 mL/min/kg and the AUC(0-t) at 8 h [24] was 540 ng·h/mL. For the same molecule, the clearance [25] was 76.7 mL/min/kg and the AUC(0-inf) [26] was 4300 ng·h/mL.
